{"source": "ChEMBL document CHEMBL4715821", "about": "“Discovery of 4-ethoxy-7H-pyrrolo[2,3-d]pyrimidin-2-amines as potent, selective and orally bioavailable LRRK2 inhibitors” (Bioorg Med Chem Lett, 2018)", "key": {"[1]": {"biological_target": "Serine/threonine-protein kinase PAK 6 (Homo sapiens) (UniProt Q9NQU5)", "experiment": "Inhibition of wild-type human partial length PAK6 (N298 to C681 residues) expressed in bacterial expression system assessed as residual activity at 1 uM by Kinomescan method relative to control"}, "[2]": {"biological_target": "CDC7/DBF4 (Cell division cycle 7-related protein kinase/Activator of S phase kinase) (Homo sapiens) (UniProt Q9UBU7+O00311)", "experiment": "Inhibition of CDC7/DBF4 (unknown origin) assessed as residual activity at 1 uM by Kinomescan method relative to control", "assay_type": "protein-complex assay"}, "[3]": {"biological_target": "Inhibitor of nuclear factor kappa-B kinase subunit alpha (Homo sapiens) (UniProt O15111)", "experiment": "Inhibition of wild-type human full length IKK-alpha (M1 to E745 residues) expressed in mammalian expression system assessed as residual activity at 1 uM by Kinomescan method relative to control"}, "[4]": {"biological_target": "CDK6/cyclin D3 (Homo sapiens) (UniProt P30281+Q00534)", "experiment": "Inhibition of wild-type human full length CDK6 (M1 to A326 residues)/cyclin D3 expressed in mammalian expression system assessed as residual activity at 1 uM by Kinomescan method relative to control"}, "[5]": {"biological_target": "Serine/threonine-protein kinase tousled-like 1 (Homo sapiens) (UniProt Q9UKI8)", "experiment": "Inhibition of wild-type human partial length TLK1 (K447 to A754 residues) expressed in bacterial expression system assessed as residual activity at 1 uM by Kinomescan method relative to control"}, "[6]": {"biological_target": "Serine/threonine-protein kinase WNK2 (Homo sapiens) (UniProt Q9Y3S1)", "experiment": "Inhibition of wild-type human partial length WNK2 (V47 to D482 residues) expressed in mammalian expression system assessed as residual activity at 1 uM by Kinomescan method relative to control"}, "[7]": {"biological_target": "Mitogen-activated protein kinase kinase kinase 20 (Homo sapiens) (UniProt Q9NYL2)", "experiment": "Inhibition of wild-type human partial length ZAK (M1 to L331 residues) expressed in bacterial expression system assessed as residual activity at 1 uM by Kinomescan method relative to control"}, "[8]": {"biological_target": "Mitogen-activated protein kinase 15 (Homo sapiens) (UniProt Q8TD08)", "experiment": "Inhibition of ERK7 (unknown origin) assessed as residual activity at 1 uM by Kinomescan method relative to control"}, "[9]": {"biological_target": "Serine/threonine-protein kinase SIK1 (Homo sapiens) (UniProt P57059)", "experiment": "Inhibition of wild-type human partial length SIK1 (M1 to Y304 residues) expressed in bacterial expression system assessed as residual activity at 1 uM by Kinomescan method relative to control"}, "[10]": {"biological_target": "Serine/threonine-protein kinase BRSK2 (Homo sapiens) (UniProt Q8IWQ3)", "experiment": "Inhibition of wild-type human full length BRSK2 (M1 to L674 residues) expressed in bacterial expression system assessed as residual activity at 1 uM by Kinomescan method relative to control"}, "[11]": {"biological_target": "Protein kinase C zeta type (Homo sapiens) (UniProt Q05513)", "experiment": "Inhibition of PKCzeta (unknown origin) assessed as residual activity at 1 uM by Kinomescan method relative to control"}, "[12]": {"biological_target": "Tyrosine-protein kinase JAK1 (Homo sapiens) (UniProt P23458)", "experiment": "Inhibition of wild-type human partial length JAK1 JH2 pseudokinase domain (R537 to D855 residues) expressed in mammalian expression system assessed as residual activity at 1 uM by Kinomescan method relative to control"}, "[13]": {"biological_target": "Cyclin-dependent kinase 1/cyclin B1 (Homo sapiens) (UniProt P06493+P14635)", "experiment": "Inhibition of wild-type human full length CDK1 (M1 to M297 residues)/Cyclin B expressed in mammalian expression system assessed as residual activity at 1 uM by Kinomescan method relative to control"}, "[14]": {"biological_target": "Serine/threonine-protein kinase ICK (Homo sapiens) (UniProt Q9UPZ9)", "experiment": "Inhibition of wild-type human partial length ICK (M1 to P314 residues) expressed in mammalian expression system assessed as residual activity at 1 uM by Kinomescan method relative to control"}, "[15]": {"biological_target": "Testis-specific serine/threonine-protein kinase 1 (Homo sapiens) (UniProt Q9BXA7)", "experiment": "Inhibition of wild-type human full length TSSK1B (M1 to Q367 residues) expressed in bacterial expression system assessed as residual activity at 1 uM by Kinomescan method relative to control"}, "[16]": {"biological_target": "Tyrosine-protein kinase JAK2 (Homo sapiens) (UniProt O60674)", "experiment": "Inhibition of wild-type human partial length JAK2 JH1 catalytic domain (A829 to G1132 residues) expressed in mammalian expression system assessed as residual activity at 1 uM by Kinomescan method relative to control"}, "[17]": {"biological_target": "LIM domain kinase 2 (Homo sapiens) (UniProt P53671)", "experiment": "Inhibition of wild-type human full length LIMK2 (M1 to P638 residues) expressed in bacterial expression system assessed as residual activity at 1 uM by Kinomescan method relative to control"}, "[18]": {"biological_target": "SRSF protein kinase 3 (Homo sapiens) (UniProt Q9UPE1)", "experiment": "Inhibition of MSSK1 (unknown origin) assessed as residual activity at 1 uM by Kinomescan method relative to control"}, "[19]": {"biological_target": "Serine/threonine-protein kinase PLK2 (Homo sapiens) (UniProt Q9NYY3)", "experiment": "Inhibition of wild-type human partial length PLK2 (H58 to F354 residues) expressed in mammalian expression system assessed as residual activity at 1 uM by Kinomescan method relative to control"}, "[20]": {"biological_target": "Tyrosine-protein kinase Srms (Homo sapiens) (UniProt Q9H3Y6)", "experiment": "Inhibition of wild-type human partial length SRMS (L208 to P488 residues) expressed in mammalian expression system assessed as residual activity at 1 uM by Kinomescan method relative to control"}, "[21]": {"biological_target": "Ephrin type-B receptor 2 (Homo sapiens) (UniProt P29323)", "experiment": "Inhibition of wild-type human partial length EPHB2 (I597 to L902 residues) expressed in bacterial expression system assessed as residual activity at 1 uM by Kinomescan method relative to control"}, "[22]": {"biological_target": "Tyrosine-protein kinase Lck (Homo sapiens) (UniProt P06239)", "experiment": "Inhibition of wild-type human partial length LCK (R207 to P509 residues) expressed in bacterial expression system assessed as residual activity at 1 uM by Kinomescan method relative to control"}, "[23]": {"biological_target": "Testis-specific serine/threonine-protein kinase 3 (Homo sapiens) (UniProt Q96PN8)", "experiment": "Inhibition of wild-type human full length TSSK3 (M1 to T268 residues) expressed in mammalian expression system assessed as residual activity at 1 uM by Kinomescan method relative to control"}, "[24]": {"biological_target": "Dual specificity protein kinase CLK4 (Homo sapiens) (UniProt Q9HAZ1)", "experiment": "Inhibition of wild-type human partial length CLK4 (R135 to K481 residues) expressed in bacterial expression system assessed as residual activity at 1 uM by Kinomescan method relative to control"}, "[25]": {"biological_target": "Insulin receptor (Homo sapiens) (UniProt P06213)", "experiment": "Inhibition of IR (unknown origin)assessed as residual activity at 1 uM by Kinomescan method relative to control"}, "[26]": {"biological_target": "Casein kinase II subunit alpha' (Homo sapiens) (UniProt P19784)", "experiment": "Inhibition of CK2a2 (unknown origin) assessed as residual activity at 1 uM by Kinomescan method relative to control"}}, "data": [{"smiles": "CCOc1nc(Nc2ccc(C(=O)N3CCOCC3)cc2OC)nc2[nH]ccc12", "values": [{"measurement": "Activity", "setting": "[1]", "value": 99.2, "unit": "%"}, {"measurement": "Activity", "setting": "[2]", "value": 102, "unit": "%"}, {"measurement": "Activity", "setting": "[3]", "value": 85.3, "unit": "%"}, {"measurement": "Activity", "setting": "[4]", "value": 96.5, "unit": "%"}, {"measurement": "Activity", "setting": "[5]", "value": 98.1, "unit": "%"}, {"measurement": "Activity", "setting": "[6]", "value": 90.4, "unit": "%"}, {"measurement": "Activity", "setting": "[7]", "value": 97.2, "unit": "%"}, {"measurement": "Activity", "setting": "[8]", "value": 99, "unit": "%"}, {"measurement": "Activity", "setting": "[9]", "value": 101, "unit": "%"}, {"measurement": "Activity", "setting": "[10]", "value": 88.8, "unit": "%"}, {"measurement": "Activity", "setting": "[11]", "value": 99.9, "unit": "%"}, {"measurement": "Activity", "setting": "[12]", "value": 97.3, "unit": "%"}, {"measurement": "Activity", "setting": "[13]", "value": 92.2, "unit": "%"}, {"measurement": "Activity", "setting": "[14]", "value": 104, "unit": "%"}, {"measurement": "Activity", "setting": "[15]", "value": 2.41, "unit": "%"}, {"measurement": "Activity", "setting": "[16]", "value": 96.3, "unit": "%"}, {"measurement": "Activity", "setting": "[17]", "value": 106, "unit": "%"}, {"measurement": "Activity", "setting": "[18]", "value": 78.1, "unit": "%"}, {"measurement": "Activity", "setting": "[19]", "value": 89.4, "unit": "%"}, {"measurement": "Activity", "setting": "[20]", "value": 108, "unit": "%"}, {"measurement": "Activity", "setting": "[21]", "value": 95.3, "unit": "%"}, {"measurement": "Activity", "setting": "[22]", "value": 80.4, "unit": "%"}, {"measurement": "Activity", "setting": "[23]", "value": 116, "unit": "%"}, {"measurement": "Activity", "setting": "[24]", "value": 35.5, "unit": "%"}, {"measurement": "Activity", "setting": "[25]", "value": 14.9, "unit": "%"}, {"measurement": "Activity", "setting": "[26]", "value": 86.1, "unit": "%"}]}]}
